Laboratory results published in ChEMBL document CHEMBL1150517, “The structural feature of S1 subsite of carboxypeptidase A” (Bioorg Med Chem Lett, 1991).

Target: T1, Carboxypeptidase A1 (Bos taurus, UniProt P00730)
T1 sequence (P00730 whole entry): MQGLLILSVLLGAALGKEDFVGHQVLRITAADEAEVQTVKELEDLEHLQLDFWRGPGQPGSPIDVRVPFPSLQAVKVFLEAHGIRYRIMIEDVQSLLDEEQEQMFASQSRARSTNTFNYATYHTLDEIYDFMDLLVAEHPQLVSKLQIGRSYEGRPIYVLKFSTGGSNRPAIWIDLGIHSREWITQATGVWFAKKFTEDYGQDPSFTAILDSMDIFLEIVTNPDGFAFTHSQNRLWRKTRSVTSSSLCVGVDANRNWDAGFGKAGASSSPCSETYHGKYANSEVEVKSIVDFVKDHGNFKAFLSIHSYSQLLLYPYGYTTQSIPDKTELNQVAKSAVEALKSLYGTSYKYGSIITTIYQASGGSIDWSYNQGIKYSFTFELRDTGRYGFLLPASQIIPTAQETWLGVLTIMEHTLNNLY
Experiment: Binding affinity against carboxypeptidase A using hippurylphenylalanine as substrate

| Compound | Ki [nM] |
| --- | --- |
| Cc1ccc(CC(CS)C(=O)O)cc1C (configuration not stated) | 492 |
| O=C(O)C(CS)Cc1c(F)c(F)c(F)c(F)c1F (configuration not stated) | 2300 |
| O=C(O)C(CS)Cc1ccc(F)c(F)c1 (configuration not stated) | 250 |
| O=C(O)C(CS)CC1CCCCC1 (configuration not stated) | 2350 |
| Cc1ccc(CC(CS)C(=O)O)cc1 (configuration not stated) | 112 |
| Cc1cccc(CC(CS)C(=O)O)c1 (configuration not stated) | 170 |
| O=C(O)C(CS)Cc1ccccc1F (configuration not stated) | 45 |
| O=C(O)C(CS)Cc1cccc2ccccc12 (configuration not stated) | 480 |
| O=C(O)C(CS)Cc1cccc(F)c1 (configuration not stated) | 35 |

Now from value to compound:

| Ki [nM] | Compound |
| --- | --- |
| 590 | O=C(O)C(CS)Cc1cc(F)c(F)c(F)c1 (configuration not stated) |
| 37 | O=C(O)C(CS)Cc1ccc(F)cc1 (configuration not stated) |
| 200 | O=C(O)C(CS)Cc1ccc2ccccc2c1 (configuration not stated) |
| 4500 | CC(C)c1ccc(CC(CS)C(=O)O)cc1 (configuration not stated) |
| 350 | Cc1cccc(CC(CS)C(=O)O)c1C (configuration not stated) |
| 7700 | CC(C)(C)c1ccc(CC(CS)C(=O)O)cc1 (configuration not stated) |
| 120 | Cc1ccccc1CC(CS)C(=O)O (configuration not stated) |
| 11 | O=C(O)C(CS)Cc1ccccc1 (configuration not stated) |
